From patent publication US20240391926A1, “SPIROINDOLINONE COMPOUNDS AS Kv1.3 POTASSIUM SHAKER CHANNEL BLOCKERS” (D.E. Shaw Research, LLC, priority 2021, published 2024)

Molecular target: T1, Kv1.3 potassium channel (Homo sapiens, UniProt P22001)
T1 construct: expressed in transfected cells
Test: Kv1.3 potassium channel blocker activity, automated whole-cell patch clamp (Patchliner) in CHO-K1 cells stably expressing Kv1.3
Format: cell-based
Details: 30 nM-100 μM
Experimental: This assay is used to evaluate the disclosed compounds' activities as Kv1.3 potassium channel blockers.
CHO-K1 cells stably expressing Kv1.3 were grown in DMEM containing 10% heat-inactivated FBS, 1 mM sodium pyruvate, 2 mM L-glutamine, and G418 (500 μg/ml). Cells were grown in culture flasks at 37° C. in a 5% CO2-humidified incubator.
The cells were bathed in an extracellular solution containing 140 mM NaCl, 4 mM KCl, 2 mM CaCl2), 1 mM MgCl2, 5 mM glucose, 10 mM HEPES; pH adjusted to 7.4 with NaOH; 295-305 mOsm. The internal solution contained 50 mM KCl, 10 mM NaCl, 60 mM KF, 20 mM EGTA, 10 mM HEPES; pH adjusted to 7.2 with KOH; 285 mOsm. All compounds were dissolved in DMSO at 30 mM. Compound stock solutions were freshly diluted with external solution to concentrations of 30 nM, 100 nM, 300 nM, 1 μM, 3 μM, 10 μM, 30 μM and 100 μM. The highest content of DMSO (0.3%) was present in 100 μM.
The currents were evoked by applying 100 ms depolarizing pulses from −90 mV (holding potential) to +40 mV were applied with 0.1 Hz frequency. Control (compound-free) and compound pulse trains for each compound concentration applied contained 20 pulses. 10-second breaks were used between pulse trains (see Table A below).
Whole-cell current recordings and compound application were enabled by means of an automated patch clamp platform Patchliner (Nanion Technologies GmbH). EPC 10 patch clamp amplifier (HEKA Elektronik Dr. Schulze GmbH) along with Patchmaster software (HEKA Elektronik Dr. Schulze GmbH) was used for data acquisition. Data were sampled at 10 kHz without filtering. Passive leak currents were subtracted online using a P/4 procedure (HEKA Elektronik Dr. Schulze GmbH). Increasing compound concentrations were applied consecutively to the same cell without washouts in between. Total compound incubation time before the next pulse train was not longer than 10 seconds. Peak current inhibition was observed during compound equilibration.
AUC and peak values were obtained with Patchmaster (HEKA Elektronik Dr. Schulze GmbH). To determine IC50, the last single pulse in the pulse train corresponding to a given compound concentration was used. Obtained AUC and peak values in the presence of compound were normalized to control values in the absence of compound. Using Origin (OridinLab), IC50 was derived from data fit to Hill equation: Icompound/Icontrol=(100−A)/(1+([compound]/IC50)nH)+A, where IC50 value is the concentration at which current inhibition is half-maximal, [compound] is the applied compound concentration, A is the fraction of current that is not blocked and nH is the Hill coefficient.

T1 sequence (P22001 whole entry): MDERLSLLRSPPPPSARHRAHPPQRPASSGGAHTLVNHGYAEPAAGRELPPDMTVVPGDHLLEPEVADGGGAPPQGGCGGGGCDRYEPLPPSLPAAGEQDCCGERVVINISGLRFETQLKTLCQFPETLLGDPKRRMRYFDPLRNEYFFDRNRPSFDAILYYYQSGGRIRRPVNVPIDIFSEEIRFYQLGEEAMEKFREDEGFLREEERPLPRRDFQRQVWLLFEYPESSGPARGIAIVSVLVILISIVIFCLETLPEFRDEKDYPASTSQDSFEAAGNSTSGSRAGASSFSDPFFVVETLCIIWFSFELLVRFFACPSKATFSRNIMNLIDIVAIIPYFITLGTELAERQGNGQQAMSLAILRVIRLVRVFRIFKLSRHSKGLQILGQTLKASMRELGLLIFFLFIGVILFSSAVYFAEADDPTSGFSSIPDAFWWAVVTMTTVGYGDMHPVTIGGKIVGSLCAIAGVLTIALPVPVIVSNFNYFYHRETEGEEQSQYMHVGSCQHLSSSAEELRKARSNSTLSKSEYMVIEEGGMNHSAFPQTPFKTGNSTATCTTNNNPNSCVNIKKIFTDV

| Structure (SMILES) | IC50 [µM] |
| --- | --- |
| Cn1cc(C(=O)N2CC[C@]3(C2)C(=O)Nc2cc(Cl)c(Cl)cc23)cn1 [Compound 69, (S)-5,6-dichloro-1′-(1-methyl-1H-pyrazole-4-carbonyl)spiro[indoline-3,3′-pyrrolidin]-2-one] | < 10 |
| O=C([C@@H]1CNCCO1)N1CC[C@]2(C1)C(=O)Nc1cc(Cl)c(Cl)cc12 [Compound 11, (S)-5,6-dichloro-1′-((S)-morpholine-2-carbonyl)spiro[indoline-3,3′-pyrrolidin]-2-one] | < 3 |
| Nc1nnc(N2CC[C@]3(C2)C(=O)Nc2cc(Cl)c(Cl)cc23)o1 [Compound 132, (S)-1′-(5-amino-1,3,4-oxadiazol-2-yl)-5,6-dichlorospiro[indoline-3,3′-pyrrolidin]-2-one] | < 3 |
| O=C(c1cn[nH]c1CO)N1CC[C@]2(C1)C(=O)Nc1cc(Cl)c(Cl)cc12 [Compound 80, (S)-5,6-dichloro-1′-(5-(hydroxymethyl)-1H-pyrazole-4-carbonyl)spiro[indoline-3,3′-pyrrolidin]-2-one] | < 1 |
| O=C([C@H]1CC[C@@H](O)C1)N1CC[C@]2(C1)C(=O)Nc1cc(Cl)c(Cl)cc12 (single isomer, unassigned; isomer 3) [Compound 65] | < 3 |
| O=C(c1cn[nH]n1)N1CC[C@]2(C1)C(=O)Nc1cc(Cl)c(Cl)cc12 [Compound 137, (S)-5,6-dichloro-1′-(1H-1,2,3-triazole-4-carbonyl)spiro[indoline-3,3′-pyrrolidin]-2-one] | < 1 |
| O=C([C@@H]1CC[C@](O)(CO)C1)N1CC[C@]2(C1)C(=O)Nc1cc(Cl)c(Cl)cc12 (single isomer, unassigned; isomer 2) [Compound 98] | < 3 |
| O=C1Nc2cc(Cl)c(Cl)cc2[C@]12CCN(c1cnccn1)C2 [Compound 149, (S)-5,6-dichloro-1′-(pyrazin-2-yl)spiro[indoline-3,3′-pyrrolidin]-2-one] | < 3 |
| O=C1Nc2cc(Cl)c(Cl)cc2[C@]12CCN(C(=O)[C@H]1C[C@@H](O)C1)C2 [Compound 25, (S)-5,6-dichloro-1′-((1s,3R)-3-hydroxycyclobutane-1-carbonyl)spiro[indoline-3,3′-pyrrolidin]-2-one] | < 3 |
| O=C([C@@H]1CC[C@H](O)[C@@H](O)C1)N1CC[C@]2(C1)C(=O)Nc1cc(Cl)c(Cl)cc12 (single isomer, unassigned; isomer 1) [Compound 103] | < 1 |
| C[C@H]1C[C@]2(CN1C(=O)CO)C(=O)Nc1cc(Cl)c(Cl)cc12 (single isomer, unassigned; isomer 1) [Compound 123, 5,6-dichloro-1′-(2-hydroxyacetyl)-5′-methyl-1H-spiro[indole-3,3′-pyrrolidin]-2-one isomer 1] | < 30 |
| O=C([C@@H]1CCCN1)N1CC[C@]2(C1)C(=O)Nc1cc(Cl)c(Cl)cc12 [Compound 22, (S)-1′-(L-prolyl)-5,6-dichlorospiro[indoline-3,3′-pyrrolidin]-2-one] | < 1 |
| O=C(c1cc(CO)[nH]n1)N1CC[C@]2(C1)C(=O)Nc1cc(Cl)c(Cl)cc12 [Compound 79, (S)-5,6-dichloro-1′-(5-(hydroxymethyl)-1H-pyrazole-3-carbonyl)spiro[indoline-3,3′-pyrrolidin]-2-one] | < 3 |
| Nc1[nH]ncc1C(=O)N1CC[C@]2(C1)C(=O)Nc1cc(Cl)c(Cl)cc12 [Compound 70, (S)-1′-(5-amino-1H-pyrazole-4-carbonyl)-5,6-dichlorospiro[indoline-3,3′-pyrrolidin]-2-one] | < 3 |
| O=C(N1CC[C@]2(C1)C(=O)Nc1cc(Cl)c(Cl)cc12)C12CNCC1C2 (single isomer, unassigned; isomer 2) [Compound 33] | < 1 |
| O=C([C@@H]1[C@@H]2CN[C@H]1C2)N1CC[C@]2(C1)C(=O)Nc1cc(Cl)c(Cl)cc12 (single isomer, unassigned; isomer 2) [Compound 58] | < 1 |
| CC(C)C[C@H](N)C(=O)N1CC[C@]2(C1)C(=O)Nc1cc(Cl)c(Cl)cc12 [Compound 45, (S)-1′-(L-leucyl)-5,6-dichlorospiro[indoline-3,3′-pyrrolidin]-2-one] | < 3 |
| O=C1Nc2cc(Cl)c(Cl)cc2[C@]12CCN(C(=O)[C@H]1C[C@H](O)C1)C2 [Compound 27, (S)-5,6-dichloro-1′-((1r,3S)-3-hydroxycyclobutane-1-carbonyl)spiro[indoline-3,3′-pyrrolidin]-2-one] | < 3 |

| Structure (SMILES) | IC50 [µM] |
| --- | --- |
| COC[C@H]1C[C@@H](C(=O)N2CC[C@]3(C2)C(=O)Nc2cc(Cl)c(Cl)cc23)CN1 [Compound 111, (S)-5,6-dichloro-1′-((3R,5R)-5-(methoxymethyl)pyrrolidine-3-carbonyl)spiro[indoline-3,3′-pyrrolidin]-2-one] | < 1 |
| O=C([C@H](O)CO)N1CC[C@]2(C1)C(=O)Nc1cc(Cl)c(Cl)cc12 [Compound 159, (S)-5,6-dichloro-1′-((R)-2,3-dihydroxypropanoyl)spiro[indoline-3,3′-pyrrolidin]-2-one] | < 3 |
| O=C1Nc2cc(Cl)c(Cl)cc2[C@]12CCN(c1ccn[nH]1)C2 (single isomer, unassigned) [Compound 153] | < 3 |
| NC[C@@H](O)C(=O)N1CC[C@]2(C1)C(=O)Nc1cc(Cl)c(Cl)cc12 [Compound 55, (S)-1′-((R)-3-amino-2-hydroxypropanoyl)-5,6-dichlorospiro[indoline-3,3′-pyrrolidin]-2-one] | < 1 |
| O=C(N1CC[C@]2(C1)C(=O)Nc1cc(Cl)c(Cl)cc12)[C@]1(F)CCNC1 (single isomer, unassigned; isomer 1) [Compound 28] | < 1 |
| C[C@H]1CN(C(=O)CO)CC12C(=O)Nc1cc(Cl)c(Cl)cc12 (single isomer, unassigned; diastereoisomer 2) [Compound 131, 5,6-dichloro-1′-(2-hydroxyacetyl)-4′-methylspiro[indoline-3,3′-pyrrolidin]-2-one diastereoisomer 2] | < 1 |
| O=C([C@@H]1CC[C@H](O)C1)N1CC[C@]2(C1)C(=O)Nc1cc(Cl)c(Cl)cc12 (single isomer, unassigned; isomer 4) [Compound 66] | < 3 |
| O=C(C[C@H](O)CO)N1CC[C@]2(C1)C(=O)Nc1cc(Cl)c(Cl)cc12 [Compound 76, (S)-5,6-dichloro-1′-((S)-3,4-dihydroxybutanoyl)spiro[indoline-3,3′-pyrrolidin]-2-one] | < 3 |
| O=C(CO)N1CC[C@]2(C1)C(=O)Nc1cc(Cl)c(Br)cc12 [Compound 118, (S)-5-bromo-6-chloro-1′-(2-hydroxyacetyl)spiro[indoline-3,3′-pyrrolidin]-2-one] | < 1 |
| NC(=O)N1CC[C@@]2(C1)C(=O)Nc1cc(Cl)c(Cl)cc12 (single isomer, unassigned) [Compound 155] | < 3 |
| O=C(C1CC1O)N1CC[C@]2(C1)C(=O)Nc1cc(Cl)c(Cl)cc12 (stereo partly drawn) [Compound 158, (3S)-5,6-dichloro-1′-(2-hydroxycyclopropane-1-carbonyl)spiro[indoline-3,3′-pyrrolidin]-2-one] | < 3 |
| CC(C)[C@H](N)C(=O)N1CC[C@]2(C1)C(=O)Nc1cc(Cl)c(Cl)cc12 [Compound 47, (S)-1′-(L-valyl)-5,6-dichlorospiro[indoline-3,3′-pyrrolidin]-2-one] | < 3 |
| O=C(N1CC[C@]2(C1)C(=O)Nc1cc(Cl)c(Cl)cc12)C1(O)CCNC1 (single isomer, unassigned; isomer 1) [Compound 30] | < 1 |
| O=C(CO)N1CC[C@@]2(C1)C(=O)Nc1c2cc(Cl)c(Cl)c1Cl [Compound 122, (3R)-5,6,7-trichloro-1′-(2-hydroxyacetyl)-1H-spiro[indole-3,3′-pyrrolidin]-2-one] | < 3 |
| O=C(c1nnc[nH]1)N1CC[C@]2(C1)C(=O)Nc1cc(Cl)c(Cl)cc12 [Compound 136, (S)-5,6-dichloro-1′-(1H-1,2,4-triazole-3-carbonyl)spiro[indoline-3,3′-pyrrolidin]-2-one] | < 1 |
| O=C([C@@H]1CNC[C@@H]1O)N1CC[C@]2(C1)C(=O)Nc1cc(Cl)c(Cl)cc12 (single isomer, unassigned) [Compound 1] | < 1 |
| COCC(=O)N1CC[C@]2(C1)C(=O)Nc1cc(Cl)c(Cl)cc12 [Compound 147, (S)-5,6-dichloro-1′-(2-methoxyacetyl)spiro[indoline-3,3′-pyrrolidin]-2-one] | < 1 |
